This is an account of results in article PMC6273429, “Pharmacokinetics of Tyrosol Metabolites in Rats” (Molecules, 2016).

Like-named read-outs stand apart in the source and are kept apart here.

A short description of data set [1]: Pharmacokinetics of tyrosol metabolites in rat urine after single oral dose of tyrosol (HPLC). In kind it is in vivo, Sprague-Dawley rats. Conditions: for Tmax / half-life: male, Sprague-Dawley; for Tmax: rat, urine, po. On the procedure: Urine samples were collected at 0–1, 1–2, 2–4, 4–8, and 8–24 h after administration of tyrosol.
(§1) Male Sprague-Dawley rats with average weights of 250 g were purchased from Orient Bio Inc. (Seoul, Korea) and acclimatized to laboratory conditions comprising a 12:12 h light-dark cycle, temperature of 24 °C, and humidity of 55% for one week. Animals were fed AIN-93G diet and provided water ad libitum during acclimation. On the dosing day, the rats were gavaged with tyrosol (100 or 200 mg/kg) as a suspension in polyethylene glycol. After the oral administration of a single dose of tyrosol to rats, blood samples were collected from the eye of the rats at different time points after dosing (0.25, 0.5, 1, 2, 4, 8, and 16 h). Urine samples were collected just before administration of tyrosol and during 0–1, 1–2, 2–4, 4–8, and 8–24 h after dosing. Liver, lung, heart, spleen, kidney, and epididymal adipose tissues were excised as quickly as possible and stored frozen at −80 °C until use. Animal studies were conducted in accordance with our institutional and national guidelines, and all experimental procedures were approved by the Korea Food Research Institute Animal Care and Use Committee (KFRI-IACUC, #2015-0016).
(§2) HPLC analyses were performed on a Jasco high-performance liquid chromatography (HPLC) system (Jasco Corporation, Tokyo, Japan) equipped with a Jasco UV-2089 plus quaternary gradient pump, Jasco AS-2057 plus intelligent sample injector, Jasco UV-2075 UV/Vis detector, and Borwin chromatography software version 1.5. Separation was achieved using an XTerra RP18 column (4.6 × 250 mm, 5 µM, Waters) and a guard column. Elution was performed at a flow rate of 1.0 mL/min at 30 °C. The solvents for eluent were 1% (v/v) phosphoric acid (solvent A) and acetonitrile (solvent B). The solvent gradient changed according to the following conditions: 100% A to 95% A over 10 min, to 85% A over 10 min, to 70% A over 10 min, to 65% A over 5 min, to 90% A over 5 min, and to 100% A over 5 min, followed by 5 min of maintenance. The UV detector was set at a wavelength of 280 nm.
(§3) A non-compartmental pharmacokinetics analysis for each tyrosol metabolite was performed using PK solution software version 2.0 (Summit Research Services, Montrose, CO, USA). Cmax, Tmax, and T1/2 were estimated from the plasma concentration-time curve. The area under the curve (AUC) for the plasma concentration over time was calculated using the trapezoidal rule.

Data set [2] in a line: Tissue distribution of tyrosol-derived metabolites after oral administration of tyrosol. In kind it is in vivo, Sprague-Dawley rats. How it is done:
To study the tissue distribution of tyrosol metabolites, organs were collected at different time points following oral administration of tyrosol. T4S and M2 were detected in each tissue within 1 h after tyrosol administration (Figure 5A,B). […] These findings indicate that the metabolites are mainly excreted by the kidneys through the liver. Specifically, we propose that the rapid uptake of tyrosol is followed by its sulfation in the liver.
Figure 5 Tissue distribution of tyrosol-4-sulfate (A) and M2 (B). Tissue samples (heart, kidney, spleen, lung, liver, epididymal adipose tissue) were collected at different time intervals post-dosing (0, 0.5, 1, 2, 4, 8, and 16 h) and the concentration of tyrosol-4-sulfate and M2 was measured. Each point represents mean ± SD (n = 3).
as §1
Each tissue was thawed, rinsed with ice-cold saline, blotted dry, weighed, and homogenized (1:1, w/v) in water using homogenizer (MP Fastprep instrument, MP Biomedical, Solon, OH, USA). The homogenates (300 µL) were transferred into clean tubes, methanol (700 µL) was added, and the tubes were vortex-mixed for 5 min. The supernatant was collected after centrifugation at 13,000 rpm for 15 min. The supernatant was evaporated to dryness at room temperature under a stream of nitrogen gas. The residue was resuspended in methanol (100 µL).
as §2

Data set [3] in a line: Pharmacokinetics of tyrosol metabolites in rat plasma after single oral dose of tyrosol (HPLC). In kind it is in vivo, Sprague-Dawley rats. Conditions: for Cmax / Tmax / half-life / AUC(0-t): male, Sprague-Dawley; for AUC(0-t): n = 3, read-out: AUC (0-8h). On the procedure: To understand the time-dependent changes in the concentration of tyrosol metabolites, the level of metabolites in plasma samples was measured by HPLC at different time points (15, 30, 60, 120, and 240 min) after tyrosol administration. […] The inter- and intra-day precision and accuracy were determined by replicate analysis of the samples at two concentrations of each metabolite: 0.1 and 2 mg/mL tyrosol-4-sulfate. The stability of the metabolites was determined at room temperature over 24 h.
as §1
To 300 µL of serum, 700 µL of methanol was added, followed by vortex mixing for 5 min. After centrifugation at 13,000 rpm for 15 min, the supernatant was collected and injected into the HPLC or LC-MS system.
as §2, §3

For data set [4], the system named is human hepatoma HepG2 cells. More on the design: method as in PMID 16366672. As to conditions: cited from earlier work.

Usually Tmax stands for the time from dosing to the highest level. Usually half-life stands for the time in which the quantity being followed falls by half. Usually Cmax stands for the peak of the concentration-time curve.

As to `O=S(=O)(O)Oc1ccc(CCO)cc1` [T4S, tyrosol-4-sulfate], the “time by which eliminated in urine” value in data set [1] (after oral tyrosol) is recorded as at most 12 h. Moreover, the Tmax in data set [1] (100 mg/kg, tyrosol oral 100 mg/kg b.w., read-out: Tmax) is 2 h; in data set [1] (200 mg/kg, tyrosol oral 200 mg/kg b.w., read-out: Tmax), 2.9 h; in data set [1] (200 mg/kg, tyrosol oral 100 and 200 mg/kg, read-out: Tmax in urine (range over doses)) it was 2 to 2.9 h; in data set [3] (tyrosol oral 100 mg/kg b.w.), 0.178 h; in data set [3] (tyrosol oral 200 mg/kg b.w.), 0.177 h. For the same compound, the half-life in data set [1] (tyrosol oral 100 mg/kg b.w.) was 1.2 h; in data set [1] (tyrosol oral 200 mg/kg b.w.), 1.2 h; in data set [3] (tyrosol oral 100 mg/kg b.w.) it was 0.23 h; in data set [3] (tyrosol oral 200 mg/kg b.w.), 0.202 h. In data set [2] (rat tissues after oral tyrosol), the “time to detection in each tissue” value is on record as at most 1 h. Further, the “detection in epididymal fat and the lungs” value in data set [2] (rat, after oral tyrosol) is listed as “not detected”. Moreover, the “time of elimination from organs and tissues” value in data set [2] (rat, after oral tyrosol) is reported as at most 4 h. Moreover, the “tissues of greatest deposition / highest concentration by tissue weight” value was “liver, followed by the kidney and spleen” in data set [2] (rat, after oral tyrosol); “liver and the kidney” in data set [2] (rat, after oral tyrosol, listed as tyrosol-4-sulfate). In addition, the “time of uptake after oral administration of tyrosol” value in data set [3] is at most 1 h. The Cmax in data set [3] (tyrosol oral 100 mg/kg b.w.) turned out to be 7900 ng/mL; in data set [3] (tyrosol oral 200 mg/kg b.w.), 12100 ng/mL. For the same compound, the AUC(0-t) in data set [3] (tyrosol oral 100 mg/kg b.w.) worked out at 2500 ng·h/mL; in data set [3] (tyrosol oral 200 mg/kg b.w.) it was 6600 ng·h/mL.
Take `OCCc1ccc(O)cc1` [Tyrosol]: in data set [4], the “detection of sulfated metabolites” value was “no detection” and the “metabolism to glucuronide conjugates” value is on record as “poorly metabolized”.
